Patent publication US20140193827A1 (TEVA PHARMACEUTICAL INDUSTRIES, LTD., priority 2013, published 2014)

Test system: GA-primed murine splenocytes
Test: ANOVA-based pattern identification method
Format: cell-based, mouse
Conditions: UP IN generic ONLY
From the text: We sought to identify probes matching specific patterns of expression across experimental conditions using a technique that referred to as the ANOVA-based Pattern Identification Method.
To carry out the analysis in a general manner, we computed the 6 p-values required to do pairwise comparisons of all 4 conditions for all probes using the ANOVA1 function in MATLAB. We then identified sets of probes matching the desired pattern. In the example above, probes were identified as being only affected by PG if their 6 pairwise comparison pvalues matched the following pattern (pGA-PG<0.05, pPG-reference standard<0.05, pPG-Medium<0.05, pGAMedium>0.05, pGA-reference standard>0.05, preference standard-Medium>0.05).

glatiramer acetate [GA]
4930544L04RIK expression: 5.873 | 4933437N03RIK expression: 6.099 | 5330403O16RIK expression: 5.716 | 5730472N09RIK expression: 7.649 | 5830457O10RIK expression: 9.145 | 5930400G23RIK expression: 5.875 | 6330579M01RIK expression: 5.814 | 6430709H04RIK expression: 5.642 | 6720407G21RIK expression: 5.543 | 8030455F02RIK expression: 5.766 | 9030624J02RIK expression: 9.517 | 9130011J15RIK expression: 8.444 | 9330104G04RIK expression: 5.71 | 9330158H04RIK expression: 5.699 | 9330183F02RIK expression: 5.986 | 9430003J03RIK expression: 6.25 | 9430078K10RIK expression: 6.125 | 9430088N01RIK expression: 6.673 | 11110020P15RIK expression: 12.88 | A4GALT expression: 5.801 | A230005A19RIK expression: 5.83 | A230084A06RIK expression: 5.804 | ADAL expression: 6.367 | ADAR expression: 8.858 | ADPRHL2 expression: 6.783 | AI844366 expression: 5.793 | AKT2 expression: 5.919 | ALOX15 expression: 5.968 | ARFGAP2 expression: 9.429 | ARVCF expression: 5.727 | ATG3 expression: 5.593 | ATP9B expression: 5.92 | ATP13A1 expression: 9.018 | ATPBD3 expression: 6.569 | B930062B16RIK expression: 6.038 | BC017612 expression: 7.394 | BC031853 expression: 6.952 | BC037704 expression: 7.193 | BC040758 expression: 6.077 | BCKDK expression: 9.485 | BCL2L2 expression: 5.792 | BCL2L12 expression: 6.997 | BLCAP expression: 8.164 | BPHL expression: 5.714 | BTRC expression: 7.946 | BZRPL1 expression: 6.203 | C130040D06RIK expression: 5.711 | C230062L16RIK expression: 6.189 | C230092H20RIK expression: 5.902 | C730048C13RIK expression: 5.941 | C920004C08RIK expression: 11.38 | CAPZB expression: 5.854 | CAR6 expression: 5.68 | CBARA1 expression: 7.517 | CCL2 expression: 5.834 | CD44 expression: 5.953 | CD151 expression: 7.186 | CDC42BPB expression: 7.153 | CDCA1 expression: 5.663 | CEBPE expression: 6.204 | CENTD3 expression: 7.76 | CHGA expression: 5.756 | CHRM2 expression: 5.589 | CLCN1 expression: 5.787 | CLCNKB expression: 5.956 | CLEC4A3 expression: 6.547 | CNGA4 expression: 6.005 | CNTLN expression: 5.647 | COBLL1 expression: 7.08 | COL4A1 expression: 6.209 | COQ6 expression: 9.965 | COQ9 expression: 8.284 | COTL1 expression: 12.24 | CTNNA3 expression: 5.701 | CXCL14 expression: 5.622 | CYGB expression: 6.119 | D0HXS9928E expression: 9.848 | D11WSU47E expression: 7.068 | D130017N08RIK expression: 6.061 | D430013G08RIK expression: 5.658 | DACH1 expression: 5.874 | DBF4 expression: 8.57 | DHDH expression: 7.454 | DNAHC17 expression: 5.838 | DNM3 expression: 5.71 | DUS2L expression: 6.953 | E030016N13RIK expression: 6.199 | E330037I15RIK expression: 6.256 | EFCAB6 expression: 5.61 | EG665903 expression: 5.547 | ENAH expression: 5.919 | EPM2A expression: 5.76 | F830116E18RIK expression: 5.893 | FAHD1 expression: 7.177 | FAM123A expression: 5.862 | FBXL15 expression: 7.284 | FBXL21 expression: 5.656 | FGR expression: 6.972 | FOXE1 expression: 5.777 | FOXP4 expression: 6.284 | FRY expression: 5.74 | GABRG1 expression: 5.55 | GM628 expression: 5.746 | GPAA1 expression: 7.442 | GPR106, LGR8, GPCR expression: 5.814 | GSTK1 expression: 8.386 | GYPA expression: 6.898 | HIST2H2AA1 expression: 6.224 | HMGCL expression: 7.958 | HOXC10 expression: 6.132 | HSD3B2 expression: 5.776 | HTATIP2 expression: 8.787 | INTS7 expression: 9.311 | ISCA1 expression: 9.378 | ITFG2 expression: 8.148 | ITGA2B expression: 6.451 | JPH1 expression: 5.671 | KCNC3 expression: 5.962 | KIF17 expression: 5.897 | KLHDC3 expression: 7.853 | KREMEN2 expression: 6.223 | KRTCAP2 expression: 12.5338 | LOC223628 expression: 5.598 | LOC277049 expression: 5.915 | LOC277236 expression: 5.977 | LOC332300 expression: 6.243 | LOC380636 expression: 5.566 | LOC380723 expression: 5.812 | LOC382813 expression: 5.786 | LOC383439 expression: 5.708 | LOC385989 expression: 5.996 | LOC546088 expression: 5.782 | LOC677528 expression: 9.498 | LOC100045460 expression: 5.645 | LOC100046781 expression: 6.089 | LOC100047194 expression: 5.921 | LOC100047603 expression: 6.184 | LOC100048331 expression: 5.894 | LY96 expression: 7.768 | LYSMD4 expression: 6.812 | MAGEA9 expression: 5.817 | MAGEE2 expression: 5.808 | MAK10 expression: 9.516 | MAPKAPK2 expression: 10.02 | MCPT6 expression: 5.782 | MFSD7A expression: 5.961 | MKNK1 expression: 6.113 | MLANA expression: 5.769 | MOCO5 expression: 6.424 | MS4A7 expression: 6.506 | MTAP1S expression: 8.992 | MTRR expression: 6.473 | NAPA expression: 7.994 | NAPRT1 expression: 6.46 | NCDN expression: 8.408 | NEK4 expression: 5.969 | NFE2L1 expression: 9.753 | NFKB1 expression: 11.57 | NRXN1 expression: 5.957 | NSF expression: 9.95 | OLFR228 expression: 5.655 | OLFR312 expression: 5.726 | OLFR506 expression: 5.636 | OLFR519 expression: 5.669 | OLFR907 expression: 5.644 | OLFR1155 expression: 5.789 | PALLD expression: 5.641 | PALM expression: 6.421 | PCBD2 expression: 10.32 | PCDHAC1 expression: 5.69 | PCOLN3 expression: 7.171 | PDGFB expression: 6.243 | PEF1 expression: 9.307 | PKIA expression: 6.356 | PKIB expression: 5.803 | PLD1 expression: 5.927 | PRDX2 expression: 11.61 | PRPF3 expression: 10.04 | PSCD2 expression: 6.134 | PSG22 expression: 5.693 | PTPRF expression: 5.709 | R74862 expression: 6.215 | RALGPS2 expression: 8.862 | RASAL2 expression: 6.006 | RBPMS expression: 6.068 | REXO1 expression: 6.854 | RHOF expression: 9.948 | RHOT1 expression: 9.777 | RNF40 expression: 6.148 | RNF183 expression: 5.994 | RPUSD3 expression: 6.756 | RSC1A1 expression: 7.697 | SAMD10 expression: 6.984 | SARDH expression: 5.837 | SCAVENGER RECEPTOR expression: 6.161 | SCN1B expression: 5.97 | SFRS2IP expression: 9.233 | SGSM3 expression: 7.217 | SLC7A8 expression: 6.268 | SLC13A5 expression: 5.704 | SLC22A21 expression: 5.775 | SLC26A6 expression: 6.454 | SMG7 expression: 9.655 | SNCA expression: 5.875 | SOX7 expression: 6.163 | SPEN expression: 6.891 | SPIN2 expression: 6.355 | SYMPK expression: 8.402 | SYN1 expression: 5.985 | TAF3 expression: 7.199 | TCEAL5 expression: 5.768 | TCF7L2 expression: 5.717 | TFIP11 expression: 8.095 | TFRC expression: 9.789 | TG737RPW expression: 6.301 | THOC1 expression: 8.813 | TJAP1 expression: 8.168 | TMEM43 expression: 9.133 | TNXB expression: 5.703 | TRABD expression: 8.509 | TRIM2 expression: 5.778 | TRIM15 expression: 5.62 | TRPV4 expression: 5.895 | TRUB1 expression: 8.23 | TSNAXIP1 expression: 5.811 | TTC4 expression: 8.309 | TTC15 expression: 7.191 | UACA expression: 6.1 | UAP1 expression: 8.168 | UBE2A expression: 7.652 | UBE2E2 expression: 6.42 | UGP2 expression: 7.767 | USP10 expression: 6.432 | USP36 expression: 8.5 | V1RC23 expression: 5.692 | VGLL2 expression: 5.853 | WIZ expression: 7.206 | WNK2 expression: 5.719 | XPO5 expression: 7.592 | ZBTB6 expression: 6.029 | ZEB2 expression: 5.602 | ZFP162 expression: 7.652 | ZFP239 expression: 7.228 | ZFP563 expression: 5.809 | ZFP748 expression: 5.815 | ZMAT3 expression: 7.615 | ZMIZ1 expression: 7.099 | control_ILMN_1378661 expression: 5.718 | control_ILMN_1378677 expression: 5.994 | control_ILMN_1378911 expression: 5.7 | AMBRA1 expression (first AMBRA1 line (r790)): 5.749 | CAMK1 expression (first CAMK1 line (r746)): 6.416 | AMBRA1 expression (second AMBRA1 line (r797)): 8.755 | CAMK1 expression (second CAMK1 line (r762)): 5.514
